Peptide text beside a SMILES is read from it. * marks the point of attachment. X1 = CC(=O)N[C@@H]1[C@@H](O)[C@H](O[C@@H]2O[C@H](CO)[C@@H](O[C@@H]3O[C@H](CO[C@H]4O[C@H](CO)[C@@H](O)[C@H](O)[C@@H]4O[C@@H]4O[C@H](CO)[C@@H](O[C@@H]5O[C@H](CO[C@]6(C(=O)O)C[C@H](O)[C@@H](NC(C)=O)[C@H]([C@H](O)[C@H](O)CO)O6)[C@H](O)[C@H](O)[C@H]5O)[C@H](O)[C@H]4NC(C)=O)[C@@H](O)[C@H](O[C@H]4O[C@H](CO)[C@@H](O)[C@H](O)[C@@H]4O[C@@H]4O[C@H](CO)[C@@H](O[C@@H]5O[C@H](CO[C@]6(C(=O)O)C[C@H](O)[C@@H](NC(C)=O)[C@H]([C@H](O)[C@H](O)CO)O6)[C@H](O)[C@H](O)[C@H]5O)[C@H](O)[C@H]4NC(C)=O)[C@@H]3O)[C@H](O)[C@H]2NC(C)=O)[C@@H](CO)O[C@H]1NC(=O)C*
Columns and labels:
mouse GLP-1 receptor = target: T1, mouse GLP-1 receptor (Mus musculus, UniProt O35659); assay: Test Example 6: ability to synthesize cAMP in mouse GLP-1 receptor-expressing CHO-K1 cells; type: cell-based
T1 construct: expressed in transfected cells
T1 sequence (O35659 22-463): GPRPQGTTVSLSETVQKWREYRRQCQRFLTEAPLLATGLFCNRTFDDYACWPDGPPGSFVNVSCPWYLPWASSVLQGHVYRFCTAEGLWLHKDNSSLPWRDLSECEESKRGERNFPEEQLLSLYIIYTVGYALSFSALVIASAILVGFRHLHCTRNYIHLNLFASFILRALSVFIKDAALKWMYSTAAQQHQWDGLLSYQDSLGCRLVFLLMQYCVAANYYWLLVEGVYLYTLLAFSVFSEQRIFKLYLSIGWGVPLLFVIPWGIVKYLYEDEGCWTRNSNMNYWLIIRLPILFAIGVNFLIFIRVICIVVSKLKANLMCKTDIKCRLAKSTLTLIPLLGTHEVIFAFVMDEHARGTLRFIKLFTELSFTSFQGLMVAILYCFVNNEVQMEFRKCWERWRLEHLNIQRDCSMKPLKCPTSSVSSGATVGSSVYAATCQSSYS
Description: 1. Construction of Mouse GLP-1 Receptor-Expressing Vector
A mouse GLP1 receptor sense primer (5′-[…]-3′) (SEQ ID NO: 152) and a mouse GLP-1 receptor antisense primer (5′-[…]-3′) (SEQ ID NO: 153) capable of binding to the 5′ and 3′ ends of mouse GLP-1 receptor cDNA were separately synthesized. PCR was performed using Ex Taq polymerase (TaKaRa) with cDNA (Clone ID: 40046534, Open Biosystems) as a template. Specifically, 50 μL in total of reaction solution consisting of 1 μL of template cDNA (10 ng/μL), 4 μL of 2.5 mM dNTPs, 1 μL of primer solution mixtures (each 50 μM), 5 μL of ×10 Ex Taq polymerase Buffer, 0.25 μL of Ex Taq polymerase and 38.75 μL of sterilized water was used and allowed to react by 94° C. for 1 minute; 94° C. for 45 seconds, 55° C. for 1 minute and 72° C. for 2 minutes (35 cycles); and 72° C. for 10 minutes. The PCR reaction product was electrophoresed on 1% agarose gel, and the cDNA fragment was purified using Wizard SV Gel and PCR Clean-up System (Promega) and treated with restriction enzymes (EcoRI and NheI) to obtain mouse GLP-1 receptor cDNA.
To efficiently obtain cells highly expressing a mouse GLP-1 receptor, a pIRES-gfp vector was used as an expression vector. This vector was prepared by inserting, to a vector pEGFP-N1 (Clontech), an IRES gene-containing DNA fragment obtained by the restriction enzyme treatment (Sal I and BamHI) of pIRESpuro2 (Clontech).
The mouse GLP-1 receptor cDNA fragment was inserted to pIRES-gfp to thereby obtain a mouse GLP-1 receptor-expressing vector mGLP-1R/pIRES-gfp. The DNA sequence of the obtained vector was confirmed using ABI3100-Avant (Applied Biosystems).
2. Preparation of Mouse GLP-1 Receptor-Expressing CHO-K1 Cells
CHO-K1 cells (ATCC catalog No. CCL-61) were transfected with the obtained mGLP-1R/pIRES-gfp using FuGENE (registered trademark) (Roche) according to the instruction manual. The transfected CHO-K1 cells were cultured in RPMI1640 medium (Wako Pure Chemical Industries) containing 10% FCS (Hyclone) and penicillin-streptomycin (SIGMA). Drug selection was conducted by the addition of 1.0 mg/ml G418 (Wako Pure Chemical Industries). The drug resistance cells were sorted with a cell sorter (EPICS ALTRA, Beckman Coulter) using a GFP expression level as an index. After the sorting, the limiting dilution method was conducted to obtain cells highly expressing GFP, namely, cells highly expressing a mouse GLP-1 receptor. The obtained cells were used as mouse GLP-1 receptor-expressing CHO-K1 cells in the experiment shown below.
3. Analysis of Agonist Effect of Oligosaccharide Chain Added GLP-1 Peptide (Ability to Synthesize cAMP)
The mouse GLP-1 receptor-expressing CHO-K1 cells prepared in the preceding paragraph 2 were used to evaluate the agonist effect of the oligosaccharide chain added GLP-1 peptide using the ability to synthesize cAMP as an index.
The mouse GLP-1 receptor-expressing CHO-K1 cells were suspended at a concentration of 5×10^5 cells/ml in RPMI1640 medium containing 10% FCS. The cell suspension was seeded at a concentration of 100 μL per well to a flat-bottomed 96-well plate (Falcon) and cultured at 5% CO2 at 37° C. for 16 hours. The culture supernatant was discarded. The oligosaccharide chain added GLP-1 peptide dissolved in Krebs Ringer bicarbonate Buffer containing 2.5 mM glucose was added at a concentration of 100 μL/well and cultured at 37° C. for 30 minutes. The culture supernatant was immediately discarded. The amount of cAMP synthesized in the mouse GLP-1 receptor-expressing CHO-K1 cells was measured using cAMP ELISA Kit (GE Healthcare or Cayman) and used as an index for the agonist effect of the oligosaccharide chain added GLP-1 peptide on mouse GLP-1 receptors.
GLP-1 increases intracellular cAMP concentrations through the binding to its receptor and promotes insulin secretion. Thus, the activity of the oligosaccharide chain added GLP-1 peptide was evaluated using the ability to synthesize cAMP as an index. […]

C57BL/6JJcl mice = assay: Test Example 7: Oral Glucose Tolerance Test (OGTT); type: in vivo; details: 9 nmol/kg intraperitoneal 30 minutes before glucose 1 mg/g oral
Description: After 30 minutes, a glucose solution was orally administered at a dose of 1 mg/g. Blood was collected from the orbits before the glucose administration and 30 minutes, 60 minutes and 120 minutes after the glucose administration. Blood-sugar levels were measured using ACCU-CHEK Aviva (Roche Diagnostics).
After the oral administration of the glucose solution to the mice fasted overnight, blood was collected over time, and blood-sugar levels were measured.
The correlation between the oligosaccharide chain structure and the activity was studied in mouse OGTT.

Structure (SMILES): CC[C@H](C)[C@H](NC(=O)[C@H](Cc1ccccc1)NC(=O)[C@H](CCC(=O)O)NC(=O)[C@H](CSCC(=O)N[C@@H]1O[C@H](CO)[C@@H](O[C@@H]2O[C@H](CO)[C@@H](O[C@@H]3O[C@H](CO[C@H]4O[C@H](CO)[C@@H](O)[C@H](O)[C@@H]4O[C@@H]4O[C@H](CO)[C@@H](O[C@@H]5O[C@H](CO)[C@H](O)[C@H](O)[C@H]5O)[C@H](O)[C@H]4NC(C)=O)[C@@H](O)[C@H](O[C@H]4O[C@H](CO)[C@@H](O)[C@H](O)[C@@H]4O[C@@H]4O[C@H](CO)[C@@H](O[C@@H]5O[C@H](CO)[C@H](O)[C@H](O)[C@H]5O)[C@H](O)[C@H]4NC(C)=O)[C@@H]3O)[C@H](O)[C@H]2NC(C)=O)[C@H](O)[C@H]1NC(C)=O)NC(=O)[C@H](C)NC(=O)[C@H](C)NC(=O)[C@H](CCC(N)=O)NC(=O)CNC(=O)[C@H](CCC(=O)O)NC(=O)[C@H](CC(C)C)NC(=O)[C@H](Cc1ccc(O)cc1)NC(=O)[C@H](CO)NC(=O)[C@H](CO)NC(=O)[C@@H](NC(=O)[C@H](CC(=O)O)NC(=O)[C@H](CO)NC(=O)[C@@H](NC(=O)[C@H](Cc1ccccc1)NC(=O)[C@@H](NC(=O)CNC(=O)[C@H](CCC(=O)O)NC(=O)[C@H](C)NC(=O)[C@@H](N)Cc1c[nH]cn1)[C@@H](C)O)[C@@H](C)O)C(C)C)C(=O)N[C@@H](C)C(=O)N[C@@H](Cc1c[nH]c2ccccc12)C(=O)N[C@@H](CC(C)C)C(=O)N[C@H](C(=O)N[C@@H](CCCCN)C(=O)NCC(=O)N[C@@H](CCCNC(=N)N)C(=O)NCC(=O)O)C(C)C [Example 25, 26Cys GLP-1-asialo]
- cAMP synthesis activity compared with GLP-1 (in words) (mouse GLP-1 receptor): activity equal to or more than that of the GLP-1
- effect of suppressing rise in blood-sugar levels in OGTT (C57BL/6JJcl mice): strong effect of suppressing rise in blood-sugar levels

Structure (SMILES): CC[C@H](C)[C@H](NC(=O)[C@H](Cc1ccccc1)NC(=O)[C@H](CCC(=O)O)NC(=O)[C@H](CCCCN)NC(=O)[C@H](C)NC(=O)[C@H](C)NC(=O)[C@H](CCC(N)=O)NC(=O)CNC(=O)[C@H](CCC(=O)O)NC(=O)[C@H](CC(C)C)NC(=O)[C@H](Cc1ccc(O)cc1)NC(=O)[C@H](CO)NC(=O)[C@H](CO)NC(=O)[C@@H](NC(=O)[C@H](CC(=O)O)NC(=O)[C@H](CO)NC(=O)[C@@H](NC(=O)[C@H](Cc1ccccc1)NC(=O)[C@@H](NC(=O)CNC(=O)[C@H](CCC(=O)O)NC(=O)[C@H](C)NC(=O)[C@@H](N)Cc1c[nH]cn1)[C@@H](C)O)[C@@H](C)O)C(C)C)C(=O)N[C@@H](C)C(=O)N[C@@H](Cc1c[nH]c2ccccc12)C(=O)N[C@@H](CC(C)C)C(=O)N[C@H](C(=O)N[C@@H](CSCC(=O)N[C@@H]1O[C@H](CO)[C@@H](O[C@@H]2O[C@H](CO)[C@@H](O[C@@H]3O[C@H](CO[C@H]4O[C@H](CO)[C@@H](O)[C@H](O)[C@@H]4O[C@@H]4O[C@H](CO)[C@@H](O[C@@H]5O[C@H](CO)[C@H](O)[C@H](O)[C@H]5O)[C@H](O)[C@H]4NC(C)=O)[C@@H](O)[C@H](O[C@H]4O[C@H](CO)[C@@H](O)[C@H](O)[C@@H]4O[C@@H]4O[C@H](CO)[C@@H](O[C@@H]5O[C@H](CO)[C@H](O)[C@H](O)[C@H]5O)[C@H](O)[C@H]4NC(C)=O)[C@@H]3O)[C@H](O)[C@H]2NC(C)=O)[C@H](O)[C@H]1NC(C)=O)C(=O)NCC(=O)N[C@@H](CCCNC(=N)N)C(=O)NCC(=O)O)C(C)C [Example 27, 34Cys GLP-1-asialo]
- cAMP synthesis activity compared with GLP-1 (in words) (mouse GLP-1 receptor): activity equal to or more than that of the GLP-1
- effect of suppressing rise in blood-sugar levels in OGTT (C57BL/6JJcl mice): strong effect of suppressing rise in blood-sugar levels

Structure (SMILES): CC[C@H](C)[C@H](NC(=O)[C@H](Cc1ccccc1)NC(=O)[C@H](CCC(=O)O)NC(=O)[C@H](CCCCN)NC(=O)[C@H](C)NC(=O)[C@H](C)NC(=O)[C@H](CCC(N)=O)NC(=O)[C@H](CSCC(=O)N[C@@H]1O[C@H](CO)[C@@H](O[C@@H]2O[C@H](CO)[C@@H](O[C@@H]3O[C@H](CO[C@H]4O[C@H](CO)[C@@H](O)[C@H](O)[C@@H]4O[C@@H]4O[C@H](CO)[C@@H](O[C@@H]5O[C@H](CO[C@]6(C(=O)O)C[C@H](O)[C@@H](NC(C)=O)[C@H]([C@H](O)[C@H](O)CO)O6)[C@H](O)[C@H](O)[C@H]5O)[C@H](O)[C@H]4NC(C)=O)[C@@H](O)[C@H](O[C@H]4O[C@H](CO)[C@@H](O)[C@H](O)[C@@H]4O[C@@H]4O[C@H](CO)[C@@H](O[C@@H]5O[C@H](CO[C@]6(C(=O)O)C[C@H](O)[C@@H](NC(C)=O)[C@H]([C@H](O)[C@H](O)CO)O6)[C@H](O)[C@H](O)[C@H]5O)[C@H](O)[C@H]4NC(C)=O)[C@@H]3O)[C@H](O)[C@H]2NC(C)=O)[C@H](O)[C@H]1NC(C)=O)NC(=O)[C@H](CCC(=O)O)NC(=O)[C@H](CC(C)C)NC(=O)[C@H](Cc1ccc(O)cc1)NC(=O)[C@H](CO)NC(=O)[C@H](CO)NC(=O)[C@@H](NC(=O)[C@H](CC(=O)O)NC(=O)[C@H](CO)NC(=O)[C@@H](NC(=O)[C@H](Cc1ccccc1)NC(=O)[C@@H](NC(=O)CNC(=O)[C@H](CCC(=O)O)NC(=O)[C@H](C)NC(=O)[C@@H](N)Cc1c[nH]cn1)[C@@H](C)O)[C@@H](C)O)C(C)C)C(=O)N[C@@H](C)C(=O)N[C@@H](Cc1c[nH]c2ccccc12)C(=O)N[C@@H](CC(C)C)C(=O)N[C@H](C(=O)N[C@@H](CCCCN)C(=O)NCC(=O)N[C@@H](CCCNC(=N)N)C(=O)NCC(=O)O)C(C)C [Example 2, 22Cys GLP-1-disialo] (H-HAEGTFTSDVSSYLEC(X1)QAAKEFIAWLVKGRG-OH)
- cAMP synthesis activity compared with GLP-1 (in words) (mouse GLP-1 receptor): activity equal to or more than that of the GLP-1
- effect of suppressing rise in blood-sugar levels in OGTT (C57BL/6JJcl mice): strong effect of suppressing rise in blood-sugar levels
